Three molecules from paper PMC4338435, “Design and Application of a Novel High-throughput Screening Technique for 1-Deoxynojirimycin” (Scientific Reports, 2015) can be followed below.

Assay [1] concerns the target T1, LacS (Saccharolobus solfataricus, UniProt P22498).
T1 sequence (P22498 1-489): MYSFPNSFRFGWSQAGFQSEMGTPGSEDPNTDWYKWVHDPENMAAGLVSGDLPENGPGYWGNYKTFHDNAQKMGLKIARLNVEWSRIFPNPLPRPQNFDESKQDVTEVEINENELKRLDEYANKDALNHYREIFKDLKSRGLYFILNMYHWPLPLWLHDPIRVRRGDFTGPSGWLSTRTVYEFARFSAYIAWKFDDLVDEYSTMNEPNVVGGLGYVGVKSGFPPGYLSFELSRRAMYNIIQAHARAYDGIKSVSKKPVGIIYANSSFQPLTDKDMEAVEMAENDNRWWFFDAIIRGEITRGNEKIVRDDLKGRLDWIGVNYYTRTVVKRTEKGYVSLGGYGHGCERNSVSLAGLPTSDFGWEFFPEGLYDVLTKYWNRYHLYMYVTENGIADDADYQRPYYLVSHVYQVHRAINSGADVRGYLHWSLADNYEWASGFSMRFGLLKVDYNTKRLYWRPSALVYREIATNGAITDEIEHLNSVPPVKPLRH
Briefly: inhibition of oNPG hydrolysis, A420. On the set-up: recombinant full-length LacS; purified for in vitro assay; lacS also integrated in E. coli BW25113 (BWLacS). The following applies: buffer Z, oNPG substrate, 37°C, 10 min. Format: biochemical.

Assay [2] has as its target T1, LacS. Briefly: blue-white colony assay on LB agar, E. coli BWLacS. The following applies: 40 μg/mL X-GAL, 1 mM L-arabinose. The format is cell-based. Set-up: lacS also integrated in E. coli BW25113 (BWLacS).

For the molecule `OC[C@H]1NC[C@H](O)[C@@H](O)[C@@H]1O` [1-DNJ], in assay [1], the LacS inhibition rate is 1-DNJ was found able to inhibit LacS on its o-nitrophenyl-β-D-galactopyranoside (oNPG) hydrolysis activity. Regarding `OC[C@H]1NC(O)[C@@H](O)[C@@H](O)[C@@H]1O` (stereo partly drawn) [MJ], in assay [1] (unstable MJ tested as reaction mixture of purified GutB1 with ADM and NAD+, not isolated), the LacS inhibition rate entry was “MJ was also found to inhibit the activity of LacS (Figure S3)”. For the molecule `OC[C@H]1O[C@@H](Oc2c[nH]c3ccc(Br)c(Cl)c23)[C@H](O)[C@@H](O)[C@H]1O` [X-GAL], the “blue-white colony assay on LB agar, E. coli BWLacS” value in assay [2] is on record as “inhibitory effect of 1-DNJ on the LacS activity toward 5-bromo-4-chloro-3-indolyl β-D-galactopyranoside (X-GAL)”.
